Assay results as given in publication PMC7170889, “Synthesis and evaluation of designed PKC modulators for enhanced cancer immunotherapy” (Nature Communications, 2020).

What was measured:
PKCδ-GFP fusion protein = molecular target: T1, PKCδ-GFP fusion protein (Homo sapiens, UniProt Q05655); assay: PKCδ-GFP translocation assay in living CHO-k1 cells (confocal microscopy); assay type: cell-based, Chinese hamster; conditions: for % Translocation (maximum translocation of PKCδ-GFP to the plasma membrane) / Emax at 1 µM / minimum effective concentration required to induce translocation of PKC-GFP to the membrane / Emax at 0.2 µM: CHO-k1 cells; for % Translocation (maximum translocation of PKCδ-GFP to the plasma membrane) / Emax at 1 µM / Emax at 0.2 µM: n = 3; for Emax at 1 µM: CHO-K1, 1000 nM compound; for Emax at 1 µM / Emax at 0.2 µM: read-out: % Translocation (maximum translocation of PKCδ-GFP to the plasma membrane); for minimum effective concentration required to induce translocation of PKC-GFP to the membrane: tested at 200 and 1000 nM; for Emax at 0.2 µM: CHO-K1, 200 nM compound
T1 construct: expressed in transfected cells; host or cells: CHO-k1 (Chinese hamster ovary, ATCC)
Method: (§1) With a panel of compounds bearing diverse functionality at C13, we began to explore how these modifications affect PKC binding and biological function. Because an obvious prerequisite for PKC pathway involvement is binding to PKC, compounds were initially evaluated for PKC affinity in a cell-free competitive binding assay with tritiated phorbol dibutyrate ([^3H]-PDBu). Assays were performed with representative members of both the conventional (PKCα) and novel (PKCδ) PKC families. Subsequently, compounds were assayed for PKC isoform translocation in real time in living cells using an optical assay. Translocation to the plasma membrane is the hallmark of PKC activation[18],[57],[60] and therefore monitoring the subcellular localization of a PKCδ-GFP fusion protein via confocal microscopy offers a convenient method for determining whether a compound enters a cell and engages its PKC isoform target. Finally and of clinical significance, we also determined the effect of compounds on CD22 surface expression in vitro in NALM6 cells, an ALL cell line previously studied in connection with CD22-targeted CAR T cell therapy, and two additional lymphoma cell lines[11],[31],[65].
Scale bar represents 25 μm. Experiments performed in n = 3 biological replicates. b–d Cytosolic fluorescence normalized to t = 0 (time immediately prior to addition of compound to media) and plotted against time. Error bars excluded for clarity (data presented as the mean of n = 3 biological replicates). Individual curves with error bars included in Supplementary Information.
PKCδ-GFP Translocation Assay Protocol
Chinese hamster ovary factor K1 (CHO-k1, ATCC) cells were cultured in F-12 Kaighn’s media (Hyclone, 10% fetal bovine serum, 1% penicillin/streptomycin added, reffered to as F-12 +/+ below) at 37 ° C in an incubator (5% CO2). Cell cultures were maintained by splitting cells 1:3 when they reached ~75-100% confluence (every 2-3 days) as follows:
(Gibco) was used to remove the cells from the culture flask (T75, Falcon). 1 mL of the cell suspension was then added to 9 mL of fresh F-12 +/+ and the sample was sub-cultured until reaching confluence (~2-3 days).
Cells were counted using a Countess II Automated Cell Counter (Fisher). The cell suspension was diluted to 240,000 cells/mL with fresh F-12 +/+ and 2.5 mL of this diluted stock was added to one well in a 6-well plate. The cells were then cultured for 24 hours.
Cells were transfected with Lipofectamine 2000 reagent (Invitrogen) or DA 13:11 at a 10:1 charge […]
F-12 +/+ was aspirated and cells were washed with F-12 -/-. 2 mL of fresh F-12 -/- was then added to each well, taking care not to disturb adherent cells. For each well of CHO-k1 cells, 12.5 µL Lipofectamine 2000 reagent (Invitrogen) was added to 250 µL Opti-MEM reduced serum media (Invitrogen) in a polypropylene tube and incubated for 20 minutes at RT. Meanwhile, for each well, 4 µg of PKCδ-GFP pDNA and 250 µL Opti-MEM reduced serum media was added to a separate polypropylene tube. 250 µL of the Lipofectamine 2000 suspension was added to the DNA suspension and the solution incubated for 30 minutes at RT. 500 µL of the Lipofectamine/DNA suspension was added to the respective wells of the 6-well plate. The cells were then incubated at 37 ° C (5% CO2) for ~24 hrs.
F-12 +/+ was aspirated and cells were washed with F-12 -/-. 2.4 mL of fresh F-12 -/- was then added to each well, taking care not to disturb adherent cells. A 4 µg aliquot of PKCδ-GFP pDNA was added to PBS (pH 5.5, final volume 100 µL). 5.6 µL of DA 13:11 (2 mM stock in DMSO) was then added to the DNA solution, and the mixture was gently mixed (by flicking) for 20 seconds, at which point it was added directly to the respective wells of the 6-well plate.

PKC = PKC competitive binding assay, isoform not specified; design: species or system human
Method: as §1
PKC Binding Assay Protocol […]
competition with 3H-phorbol-12,13-dibutyrate (3H-PDBu) as described below. This procedure entails a glass-fiber filtration method to determine bound radioligand.
Preparation of PKC binding assay buffer
To a 50 mL polypropylene tube was added Tris-HCl (pH 7.4, 1 M, 1 mL), KCl (1 M, 2 mL), CaCl2 (0.1 M, 30 μL), and bovine serum albumin (BSA, 40 mg, Sigma-Aldrich). This mixture was diluted to 20 mL with deionized H2O and mixed gently. The buffer was stored on ice until use. The final […]
Supplementary Table1. PKC binding assay buffer composition.
Preparation of phosphatidylserine (PS) vesicles
For every two assays, 3.5 mg phosphatidylserine (Avanti Polar Lipids, porcine, 25 mg/mL CHCl3 solution) was concentrated by removing chloroform under a stream of nitrogen followed by reduced pressure. The solid PS was suspended as vesicles in freshly prepared PKC binding assay buffer (3.5 mL) by sonicating six times for 30 sec, with a 30 sec rest between sonications (Branson Sonifier 250, power = 2, 50% duty cycle). The resulting milky cloudy mixture (1 mg/mL) was stored […]
Preparation of PKC isoform solution
Assay PKC was prepared by dissolving a 4 μg aliquot of the indicated recombinant human PKC isoform (Invitrogen) into 11.6 mL of PKC binding assay buffer (this amount is sufficient for two assays). The diluted PKC was stored on ice for immediate use.
Preparation of 3H-PDBu solution
3H-PDBu (American Radiolabeled Chemicals, Inc.; 1 mCi/mL acetone solution; specific activity: […]) was diluted 10-fold with DMSO. The resulting 500 nM stock solution was further diluted with DMSO to 30 nM.
Preparation of analog compound dilutions
Compound dilutions were prepared by serially diluting from a chosen "high" concentration by factors of 3 or 4. For each analog compound, seven concentrations were used to define the […]
To a polypropylene tube was added 3.3 mL of 1 mg/mL PS vesicles solution, 11 mL of PKC isoform solution, and 1.1 mL of 30 nM 3H-PDBu solution were added. The resulting solution was vortexed to mix and stored on ice.
PKC binding assay protocol
- Glass-fiber filters (Whatman GF/B) were prepared by soaking them in a solution of […]

[1] = tested on: CD22 surface expression in NALM6 cells; assay: CD22 surface expression in NALM6 cells (flow cytometry); assay type: cell-based, human; conditions: NALM6 cells at 1 nM relative to DMSO control; 24 h incubation, washout, 24 h sub-culture; n = 3
Method: CD22 Surface Expression Protocol – NALM6 Cells […]
unless otherwise noted below) at 37 ° C in an incubator (5% CO2). Cell cultures were maintained […]
Cell suspension from a confluent T75 flask (Fisher) was transferred to a 15 mL falcon tube and centrifuged at 1100 rpm for 7 minutes. The supernatant was aspirated, and the cell pellet was […]
Cells were counted using a Countess II Automated Cell
199 µL of this stock was added to 24 wells (enough for triplicate measurements for 8 different experimental conditions) in a 96-well plate. Dosing was […]
each experiment. 1 µL of DMSO or the appropriate stock solution of compound in DMSO was added to each well. Cells were incubated for 24 hours, at which point the cell suspensions were transferred to 1.5 mL Eppendorf tubes and diluted with 1.0 mL of PBS (Hyclone, without Ca2+ or Mg2+). Samples were centrifuged at 2000 rpm for 5 min at RT. The supernatant was aspirated, […]
Cells were sub-cultured between 2 […]
surface expression was assayed by flow cytometry.
Cells from one well were counted using a Countess II Automated Cell Counter (Fisher). ~200,000 – 300,000 cells from each well were added to 1.5 mL Eppendorf tubes containing PBS (final volume ~1.2 mL). The cell suspensions were centrifuged at 1500 rpm for 7 minutes at 4 °C. The supernatant was aspirated, and the cell pellet was resuspended in 99 µL of pre-chilled FACS […]
buffer (0.5% w/v BSA in PBS). […]
minutes. Samples were then diluted with an additional 1.0 mL of FACS buffer and centrifuged at 1500 rpm for 7 minutes at 4 °C. The supernatant was aspirated, the cell pellets were resuspended in 200 µL FACS buffer, and the resulting suspensions were transferred to FACS tubes (Fisher, […]
Cells were stained with DAPI and CD22 surface expression was analyzed using the FACScan Analyzer at the Stanford Shared FACS Facility. Data analysis was performed using FlowJo and Microsoft Excel.

T1 sequence (Q05655 whole entry, the tested form may be a part): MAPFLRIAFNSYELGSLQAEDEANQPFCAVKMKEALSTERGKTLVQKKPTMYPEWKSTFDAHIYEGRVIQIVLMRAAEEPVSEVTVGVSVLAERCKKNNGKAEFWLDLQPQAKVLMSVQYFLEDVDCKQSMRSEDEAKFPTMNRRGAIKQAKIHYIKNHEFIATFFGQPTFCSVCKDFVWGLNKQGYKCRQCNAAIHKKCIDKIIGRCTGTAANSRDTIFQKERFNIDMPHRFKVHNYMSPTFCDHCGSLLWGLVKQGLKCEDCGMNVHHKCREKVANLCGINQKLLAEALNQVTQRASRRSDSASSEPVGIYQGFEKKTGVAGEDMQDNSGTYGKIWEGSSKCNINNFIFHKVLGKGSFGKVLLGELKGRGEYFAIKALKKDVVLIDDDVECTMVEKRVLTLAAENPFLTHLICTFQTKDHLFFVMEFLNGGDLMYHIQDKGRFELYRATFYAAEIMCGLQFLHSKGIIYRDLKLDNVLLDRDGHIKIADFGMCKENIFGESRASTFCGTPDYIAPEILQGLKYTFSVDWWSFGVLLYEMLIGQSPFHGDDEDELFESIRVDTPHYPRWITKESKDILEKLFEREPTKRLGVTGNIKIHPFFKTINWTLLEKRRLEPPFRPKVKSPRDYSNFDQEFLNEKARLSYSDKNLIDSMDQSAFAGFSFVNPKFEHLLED

| Compound | % Translocation (maximum translocation of PKCδ-GFP to the plasma membrane) (PKCδ-GFP fusion protein; 1000 nM compound) [%] | Emax at 1 µM (PKCδ-GFP fusion protein) [%] | minimum effective concentration required to induce translocation of PKC-GFP to the membrane (PKCδ-GFP fusion protein) [nM] | Emax at 0.2 µM (PKCδ-GFP fusion protein) [%] | also measured |
| --- | --- | --- | --- | --- | --- |
| CCCCCC#CC(=O)O[C@H]1/C(=C/C(=O)OC)C[C@H]2C[C@H]([C@@H](C)O)OC(=O)C[C@H](O)C[C@@H]3C[C@H](OC(C)=O)C(C)(C)[C@](O)(C[C@@H]4C[C@@](O)(CO)C[C@H](/C=C/C(C)(C)[C@]1(O)O2)O4)O3 [SUW203] | 50 | ~50 | 1000 |  | PKC binding affinity in words (PKC; conventional and novel PKC isoforms): single-digit nanomolar |
| CCCCCCCC(=O)O[C@H]1/C(=C/C(=O)OC)C[C@H]2C[C@H]([C@@H](C)O)OC(=O)C[C@H](O)C[C@@H]3C[C@H](OC(C)=O)C(C)(C)[C@](O)(C[C@@H]4C[C@@H](C)C[C@H](/C=C/C(C)(C)[C@]1(O)O2)O4)O3 [SUW226] |  |  | 200 | 75 |  |
| C=CCOC(=O)/C=C1\C[C@H]2C[C@]3(O)O[C@H](C[C@@H](O)CC(=O)O[C@@H]([C@@H](C)O)C[C@@H]4C/C(=C\C(=O)OC)[C@H](OC(=O)/C=C/C=C/CCC)[C@@](O)(O4)C(C)(C)/C=C/[C@@H](C1)O2)C[C@H](OC(C)=O)C3(C)C [SUW230] |  |  | 200 |  | % Translocation (maximum translocation of PKCδ-GFP to the plasma membrane) (PKCδ-GFP fusion protein; 200 nM compound): 65%; Fold increase CD22 expression [1]: 1.62 fold |
| CCC/C=C/C=C/C(=O)O[C@H]1/C(=C/C(=O)OC)C[C@H]2C[C@H]([C@@H](C)O)OC(=O)C[C@H](O)C[C@@H]3C[C@H](OC(C)=O)C(C)(C)[C@](O)(C[C@@H]4C[C@H](OC(C)=O)C[C@H](/C=C/C(C)(C)[C@]1(O)O2)O4)O3 [SUW206] |  |  | 200 | 60 |  |
| CCCC=CC=CC(=O)OC1C(=CC(=O)OC)CC2CC(C(C)O)OC(=O)CC(O)CC3CC(OC(C)=O)C(C)(C)C(O)(CC4CC(OC(=O)CCC(=O)O)CC(C=CC(C)(C)C1(O)O2)O4)O3 (centres unmarked) [SUW211] |  | 20 | 1000 |  | sustained translocation of PKC (PKCδ-GFP fusion protein; at up to 1000 nM): did not achieve sustained translocation of PKC; decrease in affinity to PKC (PKC; charged substituents at C13, Table 1 data): 20-100 fold |
| CCCC=CC=CC(=O)OC1C(=CC(=O)OC)CC2CC(C(C)O)OC(=O)CC(O)CC3CC(OC(C)=O)C(C)(C)C(O)(CC4CC(=CC(=O)OCc5ccccc5)CC(C=CC(C)(C)C1(O)O2)O4)O3 (centres unmarked) [SUW220] | 50 |  | 1000 |  |  |
